Measured values as given in patent US20240269139A1, “COMPOUNDS FOR TARGETED PROTEIN DEGRADATION OF KINASES” (DANA-FARBER CANCER INSTITUTE, INC., priority 2020, published 2024).
Like-named read-outs stand apart in the source and are kept apart here.

Tests used:
Format in all cases: cell-based
[1] = molecular target: protein kinases (human kinome) (Homo sapiens, UniProt P41240); conditions: experiment wp047
From the text: (§1) Although development of targeted protein degraders requires a POI binder, among already-liganded proteins such as kinases, it was hypothesized that different targets would have a different propensity for current approaches to degrader-mediated destruction, which was termed ‘degradability’. […] It was rationalized that the probability of identifying the same kinase as a false positive in multiple treatments is low, therefore this analysis served to also assess the robustness of our data and subsequent interpretations. […] Overall, 62 protein kinases were degraded in more than 10 independent treatments, and remarkably, 9 of these (CDK4, AURKA, FER, WEE1, BLK. LIMK2, CDK6, GAK, LIMK1) were each degraded in at least 40 of the 154 independent treatments, emphasizing their predisposition to induced degradation (FIG. 1G; Appendix I).
(§2) Next, the frequency of degradation assessment was corrected for over-representation of molecules in the full dataset by omitting replicate profiling of compounds under different experimental conditions, to remove any bias. […] Unsurprisingly, the top degradable kinases mirror those from the previous analysis (CDK4, AURKA, FER, WEE1, BLK), confirming that in sufficiently large datasets, even with over-representation of certain molecules, frequency of degradation is a good measure of general tractability.

[2] = molecular target: T1, protein kinases (human kinome) (Homo sapiens, UniProt P42680); conditions: TEC (P42680), experiment wp047
T1 sequence (P42680 1-631): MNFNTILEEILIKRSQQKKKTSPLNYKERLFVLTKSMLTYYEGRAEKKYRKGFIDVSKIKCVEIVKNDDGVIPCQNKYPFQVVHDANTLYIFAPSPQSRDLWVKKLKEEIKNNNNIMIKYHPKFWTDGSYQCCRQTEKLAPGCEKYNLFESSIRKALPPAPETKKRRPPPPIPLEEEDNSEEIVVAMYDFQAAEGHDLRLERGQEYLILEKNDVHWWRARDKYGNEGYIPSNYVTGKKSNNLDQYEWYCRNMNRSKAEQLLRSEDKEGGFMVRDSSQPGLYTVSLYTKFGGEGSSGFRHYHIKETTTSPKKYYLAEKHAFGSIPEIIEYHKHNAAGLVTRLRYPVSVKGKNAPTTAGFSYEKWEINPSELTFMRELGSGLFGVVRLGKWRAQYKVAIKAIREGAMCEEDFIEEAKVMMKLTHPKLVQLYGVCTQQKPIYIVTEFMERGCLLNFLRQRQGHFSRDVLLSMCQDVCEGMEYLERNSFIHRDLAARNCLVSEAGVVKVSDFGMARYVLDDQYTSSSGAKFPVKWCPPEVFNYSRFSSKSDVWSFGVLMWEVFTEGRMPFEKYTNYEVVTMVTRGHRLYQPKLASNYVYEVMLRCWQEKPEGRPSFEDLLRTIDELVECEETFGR
From the text: as §1, §2

[3] = molecular target: protein kinases (human kinome) (Homo sapiens, UniProt P51451)
From the text: as §1, §2

[4] = tested on: protein kinases (human kinome); conditions: for logFC: degrader vs DMSO, down; for logFC GSK3B: experiment wp056
From the text: as §1, §2

[5] = molecular target: T2, protein kinases (human kinome) (Homo sapiens, UniProt O14965)
T2 sequence (O14965 1-403): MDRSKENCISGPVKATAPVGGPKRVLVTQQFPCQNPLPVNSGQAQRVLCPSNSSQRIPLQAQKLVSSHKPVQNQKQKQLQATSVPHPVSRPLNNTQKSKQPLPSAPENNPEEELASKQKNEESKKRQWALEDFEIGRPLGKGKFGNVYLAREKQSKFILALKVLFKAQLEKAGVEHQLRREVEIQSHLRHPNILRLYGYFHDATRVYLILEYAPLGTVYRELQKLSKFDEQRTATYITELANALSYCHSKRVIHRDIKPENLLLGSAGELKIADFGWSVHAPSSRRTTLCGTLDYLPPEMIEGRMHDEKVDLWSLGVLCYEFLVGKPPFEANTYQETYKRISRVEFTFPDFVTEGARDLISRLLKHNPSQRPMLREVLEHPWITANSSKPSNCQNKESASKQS
From the text: as §1, §2

[6] = molecular target: protein kinases (human kinome) (Homo sapiens, UniProt P49840); conditions: GSK3A P49840; experiment wp056
Sequence of protein kinases (human kinome) (Homo sapiens, UniProt P49840) (P49840 whole entry): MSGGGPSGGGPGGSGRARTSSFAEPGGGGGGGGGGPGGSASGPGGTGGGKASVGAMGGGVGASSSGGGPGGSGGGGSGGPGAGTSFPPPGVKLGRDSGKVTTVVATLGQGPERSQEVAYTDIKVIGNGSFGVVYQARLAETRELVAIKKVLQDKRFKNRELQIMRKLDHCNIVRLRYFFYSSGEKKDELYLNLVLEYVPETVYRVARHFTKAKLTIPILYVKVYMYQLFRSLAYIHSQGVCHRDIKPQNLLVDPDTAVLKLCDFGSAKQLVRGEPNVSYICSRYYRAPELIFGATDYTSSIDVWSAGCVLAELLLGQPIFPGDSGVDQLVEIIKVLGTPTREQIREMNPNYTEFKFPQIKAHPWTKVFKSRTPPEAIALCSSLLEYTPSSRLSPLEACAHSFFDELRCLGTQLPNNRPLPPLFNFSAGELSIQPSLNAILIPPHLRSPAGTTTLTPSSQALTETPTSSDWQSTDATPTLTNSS
From the text: as §1, §2

[7] = molecular target: protein kinases (human kinome) (Homo sapiens, UniProt Q2M2I8); conditions: experiment wp056
Sequence of protein kinases (human kinome) (Homo sapiens, UniProt Q2M2I8) (Q2M2I8 whole entry): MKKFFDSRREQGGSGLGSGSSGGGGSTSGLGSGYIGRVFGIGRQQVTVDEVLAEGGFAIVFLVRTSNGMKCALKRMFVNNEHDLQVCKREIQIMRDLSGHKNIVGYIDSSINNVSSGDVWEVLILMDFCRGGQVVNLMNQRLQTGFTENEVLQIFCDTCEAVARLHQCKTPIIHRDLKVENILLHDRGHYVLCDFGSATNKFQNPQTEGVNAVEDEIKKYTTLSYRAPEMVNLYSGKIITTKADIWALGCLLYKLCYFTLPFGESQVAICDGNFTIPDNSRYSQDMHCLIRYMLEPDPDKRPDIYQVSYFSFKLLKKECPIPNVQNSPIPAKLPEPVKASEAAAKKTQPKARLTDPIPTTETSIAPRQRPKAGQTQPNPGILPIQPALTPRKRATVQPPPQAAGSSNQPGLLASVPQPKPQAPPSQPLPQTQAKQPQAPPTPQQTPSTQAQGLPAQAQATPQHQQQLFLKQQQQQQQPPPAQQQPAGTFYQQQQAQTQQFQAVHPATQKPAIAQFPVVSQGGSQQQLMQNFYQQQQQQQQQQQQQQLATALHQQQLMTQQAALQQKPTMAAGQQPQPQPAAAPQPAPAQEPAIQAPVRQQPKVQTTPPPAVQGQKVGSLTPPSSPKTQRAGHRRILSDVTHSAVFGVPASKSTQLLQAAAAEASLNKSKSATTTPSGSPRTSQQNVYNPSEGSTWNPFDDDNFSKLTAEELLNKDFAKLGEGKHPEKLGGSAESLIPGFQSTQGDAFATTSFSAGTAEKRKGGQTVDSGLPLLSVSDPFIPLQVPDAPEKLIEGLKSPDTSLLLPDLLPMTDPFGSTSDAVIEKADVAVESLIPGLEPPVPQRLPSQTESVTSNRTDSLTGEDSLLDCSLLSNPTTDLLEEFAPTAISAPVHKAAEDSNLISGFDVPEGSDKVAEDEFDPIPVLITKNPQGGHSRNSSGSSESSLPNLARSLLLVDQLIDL
From the text: as §1, §2

[8] = molecular target: protein kinases (human kinome) (Homo sapiens, UniProt Q9NSY1); conditions: BMP2K Q9NSY1; experiment wp056
Sequence of protein kinases (human kinome) (Homo sapiens, UniProt Q9NSY1) (Q9NSY1 whole entry): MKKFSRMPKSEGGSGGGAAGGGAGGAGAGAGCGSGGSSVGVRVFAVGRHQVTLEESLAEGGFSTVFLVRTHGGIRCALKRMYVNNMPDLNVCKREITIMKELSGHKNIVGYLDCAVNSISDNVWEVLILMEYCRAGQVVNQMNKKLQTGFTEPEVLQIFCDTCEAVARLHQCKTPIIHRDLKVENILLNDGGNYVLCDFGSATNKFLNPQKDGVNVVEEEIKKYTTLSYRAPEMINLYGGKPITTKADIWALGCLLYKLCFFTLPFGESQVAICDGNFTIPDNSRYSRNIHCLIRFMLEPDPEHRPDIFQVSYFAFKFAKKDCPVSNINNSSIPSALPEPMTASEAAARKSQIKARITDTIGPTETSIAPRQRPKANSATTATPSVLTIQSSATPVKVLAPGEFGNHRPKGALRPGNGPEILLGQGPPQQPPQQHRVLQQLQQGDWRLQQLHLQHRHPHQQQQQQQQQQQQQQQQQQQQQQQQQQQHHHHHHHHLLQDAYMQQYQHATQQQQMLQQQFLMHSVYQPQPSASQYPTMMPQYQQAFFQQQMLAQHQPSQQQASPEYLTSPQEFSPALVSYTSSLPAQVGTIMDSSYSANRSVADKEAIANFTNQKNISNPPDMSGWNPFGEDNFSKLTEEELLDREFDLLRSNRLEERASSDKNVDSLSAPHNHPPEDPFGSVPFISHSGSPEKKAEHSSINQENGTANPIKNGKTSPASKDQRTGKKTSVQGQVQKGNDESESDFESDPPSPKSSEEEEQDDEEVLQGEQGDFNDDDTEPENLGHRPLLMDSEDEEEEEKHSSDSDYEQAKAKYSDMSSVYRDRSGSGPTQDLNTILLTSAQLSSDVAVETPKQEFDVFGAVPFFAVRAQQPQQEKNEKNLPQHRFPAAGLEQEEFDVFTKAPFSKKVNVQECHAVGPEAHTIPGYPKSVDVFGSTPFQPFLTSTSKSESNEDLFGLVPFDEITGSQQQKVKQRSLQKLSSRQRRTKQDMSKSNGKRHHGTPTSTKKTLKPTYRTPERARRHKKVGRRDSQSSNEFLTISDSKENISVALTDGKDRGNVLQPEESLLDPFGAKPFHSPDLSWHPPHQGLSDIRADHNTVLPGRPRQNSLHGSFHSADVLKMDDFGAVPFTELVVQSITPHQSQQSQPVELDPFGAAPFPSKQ
From the text: as §1, §2

[9] = molecular target: protein kinases (human kinome) (Homo sapiens, UniProt P06493); conditions: CDK1 P06493; experiment wp146
Sequence of protein kinases (human kinome) (Homo sapiens, UniProt P06493) (P06493 whole entry): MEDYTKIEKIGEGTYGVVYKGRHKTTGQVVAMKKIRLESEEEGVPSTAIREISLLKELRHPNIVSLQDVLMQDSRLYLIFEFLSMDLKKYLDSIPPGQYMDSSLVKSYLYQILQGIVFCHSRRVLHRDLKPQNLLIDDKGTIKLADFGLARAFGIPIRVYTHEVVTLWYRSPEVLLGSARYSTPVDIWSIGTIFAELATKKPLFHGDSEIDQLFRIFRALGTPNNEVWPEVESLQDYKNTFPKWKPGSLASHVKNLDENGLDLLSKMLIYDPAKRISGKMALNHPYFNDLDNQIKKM
From the text: as §1, §2

[10] = molecular target: protein kinases (human kinome) (Homo sapiens, UniProt P24941); conditions: experiment wp146
From the text: as §1, §2

[11] = molecular target: protein kinases (human kinome) (Homo sapiens, UniProt P45984); conditions: MAPK9 P45984-1; experiment wp146
Sequence of protein kinases (human kinome) (Homo sapiens, UniProt P45984) (P45984 whole entry): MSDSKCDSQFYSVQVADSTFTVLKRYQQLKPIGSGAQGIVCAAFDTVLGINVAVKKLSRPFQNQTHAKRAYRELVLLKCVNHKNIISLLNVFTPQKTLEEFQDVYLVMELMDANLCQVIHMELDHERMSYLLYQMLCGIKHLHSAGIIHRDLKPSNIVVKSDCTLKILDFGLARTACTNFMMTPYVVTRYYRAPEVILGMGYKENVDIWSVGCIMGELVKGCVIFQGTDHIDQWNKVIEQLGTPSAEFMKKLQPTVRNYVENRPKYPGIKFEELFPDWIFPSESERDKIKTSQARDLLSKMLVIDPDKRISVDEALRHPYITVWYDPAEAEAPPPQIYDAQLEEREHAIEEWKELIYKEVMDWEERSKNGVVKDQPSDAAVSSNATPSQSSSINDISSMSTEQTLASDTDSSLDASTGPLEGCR
From the text: as §1, §2

[12] = molecular target: protein kinases (human kinome) (Homo sapiens, UniProt P50613)
Sequence of protein kinases (human kinome) (Homo sapiens, UniProt P50613) (P50613 whole entry): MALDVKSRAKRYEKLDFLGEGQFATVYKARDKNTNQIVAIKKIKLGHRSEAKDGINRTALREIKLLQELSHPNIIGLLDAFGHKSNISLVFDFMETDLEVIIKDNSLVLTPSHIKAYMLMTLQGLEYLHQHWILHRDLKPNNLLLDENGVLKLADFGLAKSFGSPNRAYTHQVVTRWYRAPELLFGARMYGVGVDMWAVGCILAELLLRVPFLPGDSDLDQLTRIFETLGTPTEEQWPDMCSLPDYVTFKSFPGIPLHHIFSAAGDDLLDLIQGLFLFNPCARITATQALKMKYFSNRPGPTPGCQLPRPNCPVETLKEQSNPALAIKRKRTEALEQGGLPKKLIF
From the text: as §1, §2

[13] = molecular target: protein kinases (human kinome) (Homo sapiens, UniProt Q00535); conditions: experiment wp146
Sequence of protein kinases (human kinome) (Homo sapiens, UniProt Q00535) (Q00535 whole entry): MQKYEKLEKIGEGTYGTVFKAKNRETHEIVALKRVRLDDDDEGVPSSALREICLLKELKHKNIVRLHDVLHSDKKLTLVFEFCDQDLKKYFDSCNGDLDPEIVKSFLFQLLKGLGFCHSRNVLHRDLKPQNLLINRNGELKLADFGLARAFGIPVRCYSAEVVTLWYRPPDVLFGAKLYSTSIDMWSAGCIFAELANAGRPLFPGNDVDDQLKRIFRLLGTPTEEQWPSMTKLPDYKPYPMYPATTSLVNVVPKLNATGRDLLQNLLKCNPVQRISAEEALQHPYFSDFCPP
From the text: as §1, §2

[14] = molecular target: protein kinases (human kinome) (Homo sapiens, UniProt Q00537); conditions: experiment wp146
Sequence of protein kinases (human kinome) (Homo sapiens, UniProt Q00537) (Q00537 whole entry): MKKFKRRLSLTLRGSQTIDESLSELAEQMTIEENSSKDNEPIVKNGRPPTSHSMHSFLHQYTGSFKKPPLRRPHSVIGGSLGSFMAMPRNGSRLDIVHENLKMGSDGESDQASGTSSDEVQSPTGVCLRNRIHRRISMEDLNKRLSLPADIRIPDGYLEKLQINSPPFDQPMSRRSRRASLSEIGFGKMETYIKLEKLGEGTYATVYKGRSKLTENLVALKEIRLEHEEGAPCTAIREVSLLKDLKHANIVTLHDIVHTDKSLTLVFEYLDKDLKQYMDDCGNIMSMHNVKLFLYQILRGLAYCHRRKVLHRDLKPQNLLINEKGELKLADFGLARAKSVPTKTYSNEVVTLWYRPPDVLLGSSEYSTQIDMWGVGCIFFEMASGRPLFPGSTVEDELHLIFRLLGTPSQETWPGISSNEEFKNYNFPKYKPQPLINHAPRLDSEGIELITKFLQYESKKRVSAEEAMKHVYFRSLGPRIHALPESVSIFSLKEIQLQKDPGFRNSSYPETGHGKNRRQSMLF
From the text: as §1, §2

[15] = molecular target: protein kinases (human kinome) (Homo sapiens, UniProt Q9NYV4); conditions: experiment wp146
From the text: as §1, §2

Sequence of protein kinases (human kinome) (Homo sapiens, UniProt P41240) (P41240 whole entry): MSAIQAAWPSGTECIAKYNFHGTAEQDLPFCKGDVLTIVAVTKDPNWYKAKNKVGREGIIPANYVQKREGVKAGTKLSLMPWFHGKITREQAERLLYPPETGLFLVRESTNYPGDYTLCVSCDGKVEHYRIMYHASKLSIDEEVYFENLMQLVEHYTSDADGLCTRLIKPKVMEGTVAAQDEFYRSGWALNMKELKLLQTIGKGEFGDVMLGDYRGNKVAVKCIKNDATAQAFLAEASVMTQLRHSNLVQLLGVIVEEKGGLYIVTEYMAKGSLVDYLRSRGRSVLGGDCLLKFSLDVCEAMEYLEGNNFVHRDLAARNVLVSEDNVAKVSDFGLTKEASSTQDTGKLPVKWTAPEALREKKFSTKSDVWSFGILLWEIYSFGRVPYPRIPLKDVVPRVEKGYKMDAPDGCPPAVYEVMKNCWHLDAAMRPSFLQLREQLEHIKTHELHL

Nc1ncnc2c1c(-c1ccc(Oc3ccccc3)cc1)nn2[C@@H]1CCCN(C(=O)CCCN2CCN(CCNC(=O)CCOCCOCCNc3cccc4c3C(=O)N(C3CCC(=O)NC3=O)C4=O)CC2)C1 (stereo partly drawn) [DD.03.119]
logFC of CSK ([1]; Accession P41240): −1.786
logFC CSK ([1]; CSK (P41240), down): −1.786
logFC [2]: −2.272
logFC ([2]; direction down): −2.272
logFC of BLK ([3]; BLK P51451, experiment wp047): −1.859
logFC of BLK (P51451) ([3]; Experiment wp047, down): −1.859
logFC FYN ([4]; Accession P06241-2, experiment wp047): −0.8669
logFC of SRC ([4]; Accession P12931-2, experiment wp047): −0.6128
logFC FYN ([4]; FYN P06241-2, experiment wp047): −0.8669
logFC LCK ([4]; LCK, accession P06239-3, experiment wp047, direction of change down): −1.787
logFC ([4]; SRC (P12931-2) protein abundance): −0.6128
logFC ABL2 (P42684-5) ([4]; experiment wp047): −1.047
logFC of ABL2 (P42684-5) ([4]; experiment wp047): −1.047
logFC LCK (P06239-3) ([4]; experiment wp047, direction of change down): −1.787

N#CCc1ccc(Nc2nc(NCCCNC(=O)CCCCCCNC(=O)COc3cccc4c3C(=O)N(C3CCC(=O)NC3=O)C4=O)cc(Nc3cc(C4CC4)n[nH]3)n2)cc1 (stereo not drawn) [SB1.G.190]
logFC AURKA (O14965) ([5]; experiment wp056): −0.843
logFC [6]: −0.8894
logFC GSK3A [6]: −0.8894
logFC AAK1 ([7]; AAK1 (Q2M218-1), down): −1.489
logFC AAK1 ([7]; AAK1, accession Q2M218-1, direction of change down): −1.489
logFC [8]: −0.3508
logFC BMP2K [8]: −0.3508
logFC GSK3B ([4]; Accession P49841-2, direction down): −0.631
logFC GSK3B ([4]; GSK3B P49841-2): −0.631

NC(=O)c1c(F)cccc1Nc1nc(NC2CCN(S(=O)(=O)CCNC(=O)CCCCCCCCOc3cccc4c3C(=O)N(C3CCC(=O)NC3=O)C4=O)CC2)ncc1Br (stereo not drawn) [TMX.01.160]
logFC AURKA (O14965) ([5]; experiment wp146): −2.621
logFC [9]: −1.423
logFC CDK1 [9]: −1.423
logFC CDK2 (P24941-1) [10]: −1.971
logFC CDK2 (P24941-1) ([10]; direction of change down): −1.971
logFC [11]: −3.32
logFC MAPK9 [11]: −3.32
logFC ([12]; CDK7 (P50613) protein abundance, degrader vs DMSO, down): −0.601
logFC CDK7 ([12]; CDK7 P50613, experiment wp146): −0.601
logFC CDK5 (Q00535) [13]: −2.901
logFC CDK5 (Q00535) ([13]; direction of change down): −2.901
logFC of CDK17 ([14]; Accession Q00537): −1.627
logFC CDK17 (Q00537) ([14]; direction of change down): −1.627
logFC CDK12 ([15]; Accession Q9NYV4-1): −0.5118
logFC CDK12 ([15]; CDK12 (Q9NYV4-1)): −0.5118
logFC ([4]; CDK9 (P50750-2) protein abundance): −1.181
logFC MAPK8 (P45983-4) ([4]; Experiment wp146, direction down): −2.112
logFC MAPK8 ([4]; MAPK8 P45983-4, experiment wp146): −2.112
logFC RPS6KA1 ([4]; RPS6KA1 (Q15418-2), experiment wp146): −0.4317
logFC CDK9 (P50750-2) ([4]; experiment wp146): −1.181
logFC CDK16 (Q00536-2) ([4]; experiment wp146): −1.11
logFC RPS6KA1 (Q15418-2) ([4]; experiment wp146): −0.4317
